# Results as given in publication PMC5666896, “Molecular Docking and Screening Studies of New Natural Sortase A Inhibitors” (International Journal of Molecular Sciences, 2017).
# pIC50: −log10 of the molar value. Entries after “also recorded” stand apart in the source; their conditions may differ. Where two headings read alike, the source gives them in different places.
# Legend:
# SrtA = biological target: T1, SrtA (Staphylococcus aureus, UniProt Q2FV99); assay: Sortase A activity assay (FRET, SensoLyte 520 kit); type: biochemical, S. aureus; details: for SrtA inhibitory activity relative to myricetin (fold lower; myricetin IC50 fold lower than this compound): ratio of IC50 values to myricetin
# T1 construct: purchased Anaspec, San Jose, CA, USA
# Method: The inhibitory activity of all of the compounds was determined by quantifying the increase in fluorescence intensity upon a cleavage 5-FAM/QXL® FRET substrate using a SensoLyte® 520 Sortase A Activity Assay Kit (Anaspec, San Jose, CA, USA). According to kit protocol, reactions were performed in a 96-well plate, with each well containing 10 μL test compound solution, 40 μL enzyme solution, and 50 μL sortase substrate solution. All compounds were dissolved in dimethyl sulfoxide (DMSO) and diluted with sterilized distilled water. The final concentration of DMSO was 1%. Each compound diluted in buffer to the tested concentration and was checked for intrinsic fluorescence. According to the kit protocol, we used the enzyme without the test compound as a control, a 1% DMSO control, and a substrate control. We used the kit inhibitor, 4-hydroxymercuribenzoic acid (HMB), as the positive control. Reactions were carried out for 1 h at room temperature and analyzed fluorometrically (SpectraMAX Gemini XS, CA, USA) at Ex/Em = 490 nm/520 nm. All reported values are the means of triplicate assays.
# in vivo = details: in vivo
# Method: (§1) The Daphnia magna test was performed in 4 mL 12-tissue culture wells, using 10 daphnids/well, with each sample being tested in duplicate. […] All experiments were conducted in the dark, in a plant growth chamber (Sanyo MLR-351 H, San Diego, CA, USA) at 25 ± 1 °C [32, 33].
# (§2) Statistical analysis of the inhibitory effect on SrtA and the Daphnia magna bioassay was performed using GraphPad Prism version 5.01 software (GraphPad Software, Inc., La Jolla, CA, USA). A student’s t-test (p < 0.05) was applied in order to analyze the results obtained from replicates. […] The inhibition (I %) and lethality percentage (L %) values were calculated and plotted against the logarithm of concentrations and the corresponding curves were calculated using the least squares fit method. […] Whenever the obtained results permitted, the upper and lower limits of the 95% confidence interval (95% CI) and the correlation coefficient (r^2) were calculated.
# Daphnia magna = assay: in vivo; details: for Maximum lethality: after 48 h, tested 0.5 to 100 μM; for Highest lethality: after 48 h of exposure at 100 μM; for Toxicity on Daphnia magna (result in words): in vivo
# Method: as §1, §2
# [1] = Solubility in water (observation during FRET testing)
# T1 sequence (Q2FV99 whole entry): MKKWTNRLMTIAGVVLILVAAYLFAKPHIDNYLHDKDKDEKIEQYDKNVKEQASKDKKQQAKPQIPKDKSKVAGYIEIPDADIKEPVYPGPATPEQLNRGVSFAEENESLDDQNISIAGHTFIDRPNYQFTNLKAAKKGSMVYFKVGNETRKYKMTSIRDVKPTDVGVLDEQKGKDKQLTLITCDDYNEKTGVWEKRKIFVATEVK
compound,measurement,setting,value
"C[C@@H]1CC[C@H]2[C@@H](C)C(=O)O[C@@H]3O[C@@]4(C)CC[C@@H]1[C@]32OO4 [Artemisinin, reference compound]",SrtA inhibition (result in words),SrtA,statistically significant SrtA inhibition
same,inhibition at 50 µM,SrtA,5.32%
O=c1cc(-c2ccccc2)oc2cc(O)cc(O)c12 [Chrysin],SrtA inhibition (result in words),SrtA,statistically significant SrtA inhibition
same,LC50 at 48 h,in vivo,17.7 µM
O=c1ccc2cc(O)c(O)cc2o1 [Esculetin],pIC50,SrtA,4.44
same,SrtA inhibition (result in words),SrtA,statistically significant SrtA inhibition
same,inhibition at 250 µM,SrtA,83.6%
same,SrtA inhibitory activity relative to myricetin (fold lower; myricetin IC50 fold lower than this compound),SrtA,eight-fold
same,Maximum lethality,Daphnia magna,≤ 30%
same,Highest lethality,Daphnia magna,≤ 30%
"O=c1ccc2cc(O[C@@H]3O[C@H](CO)[C@@H](O)[C@H](O)[C@H]3O)c(O)cc2o1 [Esculin, Esculin sesquihydrate]",SrtA inhibition (result in words),SrtA,low SrtA inhibition
O=c1c(-c2ccc(O)cc2)coc2cc(O)cc(O)c12 [Genistein],inhibition at 500 µM,SrtA,9.63%
"O=C(O)c1cc[c]([Hg][OH])cc1 [HMB, 4-hydroxymercuribenzoic acid, reference compound]",Inhibition (%),"SrtA; 5 μM, after 1 h of incubation",93.87%
same,pIC50,"SrtA; after 1 h of incubation, read-out: IC50",6.94
O=c1c(O)c(-c2cc(O)c(O)c(O)c2)oc2cc(O)cc(O)c12 [Myricetin],pIC50,SrtA,5.33
same,SrtA inhibition (result in words),SrtA,statistically significant SrtA inhibition
same,inhibition at 100 µM,SrtA,92%
same,Maximum lethality,Daphnia magna,≤ 30%
same,Highest lethality,Daphnia magna,≤ 30%
COc1cc2c(cc1OC)-c1cc3ccc(OC)c(OC)c3c[n+]1CC2 [Palmatine chloride],pIC50,SrtA,4.28
same,SrtA inhibition (result in words),SrtA,statistically significant SrtA inhibition
same,inhibition at 500 µM,SrtA,85.3%
same,SrtA inhibitory activity relative to myricetin (fold lower; myricetin IC50 fold lower than this compound),SrtA,eleven-fold
same,Maximum lethality,Daphnia magna,≤ 30%
same,Highest lethality,Daphnia magna,≤ 30%
O=C(/C=C/C=C/c1ccc2c(c1)OCO2)N1CCCCC1 [Piperine],SrtA inhibition (result in words),SrtA,statistically significant SrtA inhibition
same,inhibition at 10 µM,SrtA,14.9%
same,Solubility in water (result in words),[1],low solubility in water; also recorded: low aqueous solubility
same,Toxicity on Daphnia magna (result in words),Daphnia magna,high level of toxicity
same,LC50 at 24 h,in vivo,145 µM
same,LC50 at 48 h,in vivo,3.45 µM
COc1cc([C@@H]2c3cc4c(cc3[C@H](O)[C@H]3COC(=O)[C@H]23)OCO4)cc(OC)c1OC [Podophyllotoxin],SrtA inhibition (result in words),SrtA,statistically significant SrtA inhibition
same,inhibition at 50 µM,SrtA,26.4%
same,Solubility in water (result in words),[1],low aqueous solubility
same,Toxicity on Daphnia magna (result in words),Daphnia magna,high level of toxicity
same,LC50 at 48 h,in vivo,6.47 µM
O=C(O)[C@]1(O)C[C@@H](O)[C@@H](O)[C@H](O)C1 [Quinic acid],SrtA inhibition (result in words),SrtA,statistically significant SrtA inhibition
same,inhibition at 500 µM,SrtA,19.6%
C[C@@H]1O[C@@H](OC[C@H]2O[C@@H](Oc3c(-c4ccc(O)c(O)c4)oc4cc(O)cc(O)c4c3=O)[C@H](O)[C@@H](O)[C@@H]2O)[C@H](O)[C@H](O)[C@H]1O [Rutin trihydrate],SrtA inhibition (result in words),SrtA,statistically significant SrtA inhibition
same,inhibition at 500 µM,SrtA,28.7%
same,Maximum lethality,Daphnia magna,≤ 30%
same,Highest lethality,Daphnia magna,≤ 30%
C[C@@H]1O[C@@H](OC[C@H]2O[C@@H](Oc3c(-c4ccc(OCCO)c(OCCO)c4)oc4cc(OCCO)cc(O)c4c3=O)[C@H](O)[C@@H](O)[C@@H]2O)[C@H](O)[C@H](O)[C@H]1O [Troxerutin],SrtA inhibition (result in words),SrtA,statistically significant SrtA inhibition
same,inhibition at 500 µM,SrtA,23.5%
same,Maximum lethality,Daphnia magna,≤ 30%
same,Highest lethality,Daphnia magna,≤ 30%
O=c1ccc2ccc(O)cc2o1 [Umbelliferone],SrtA inhibition (result in words),SrtA,statistically significant SrtA inhibition; also recorded: small inhibitory effect
same,inhibition at 250 µM,SrtA,4.04%
same,LC50 at 48 h,in vivo,105 µM
"O=C(O)/C=C/c1ccc(O)c(O)c1 [caffeic acid, Caffeic acid]",SrtA inhibition (result in words),SrtA,inactive
"O=c1ccc2ccccc2o1 [coumarin, Coumarin]",SrtA inhibition (result in words),SrtA,small inhibitory effect
"C[C@@H]1O[C@@H](O[C@H]2[C@H](Oc3cc(O)c4c(c3)O[C@H](c3ccc(O)cc3)CC4=O)O[C@H](CO)[C@@H](O)[C@@H]2O)[C@H](O)[C@H](O)[C@H]1O [naringin, Naringin]",SrtA inhibition (result in words),SrtA,statistically significant SrtA inhibition
same,Maximum lethality,Daphnia magna,≤ 30%
"COc1cc(/C=C/C(=O)O)ccc1O [trans-ferulic acid, trans-Ferulic acid]",SrtA inhibition (result in words),SrtA,inactive
